Source: the supplement of paper PMC10307832

Columns and labels:
Assay in all cases: relative viability (nuclei count vs DMSO), 5 days (fraction); higher = more cells survive
Mirin + OSI-027 = compound: N=C1NC(=O)/C(=C/c2ccc(O)cc2)S1 [Mirin] + COc1cccc2cc(-c3nc([C@H]4CC[C@H](C(=O)O)CC4)n4ncnc(N)c34)[nH]c12 [OSI-027] (partner 0.5 µM)
Summary of the method: (§1)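 For relative viability, nuclei counts in treated wells were divided by those in vehicle wells. Lung cancer cell lines had been pin-tool dosed in 1536-well plates the day after seeding and cultured for 5 days, then fixed and stained in one step (final 0.05% Triton X-100, 1% formaldehyde, 1 ug/ml Hoechst) and imaged at 4×. Doses were one drug alone or a fixed anchor-drug dose plus five library-drug doses (not always all listed) in √10 steps, and values are duplicate-plate medians.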

Mirin + AZD7762 = compound: N=C1NC(=O)/C(=C/c2ccc(O)cc2)S1 [Mirin] + NC(=O)Nc1cc(-c2cccc(F)c2)sc1C(=O)N[C@H]1CCCNC1 [AZD7762] (partner 0.2 µM)
Summary of the method: as §1

Mirin + Pemetrexed = compound: N=C1NC(=O)/C(=C/c2ccc(O)cc2)S1 [Mirin] + Nc1nc2[nH]cc(CCc3ccc(C(=O)N[C@@H](CCC(=O)O)C(=O)O)cc3)c2c(=O)[nH]1 [Pemetrexed] (partner 0.2 µM)
Summary of the method: as §1

[1] = compound: CCn1c(-c2nonc2N)nc2cnc(Oc3cccc(NC(=O)c4ccc(OCCN5CCOCC5)cc4)c3)cc21 + C[C@]1(O)C[C@@H](c2nc(-c3ccc4ccc(-c5ccccc5)nc4c3)c3c(N)nccn32)C1 [Linsitinib] (partner 1 µM)
Summary of the method: as §1

| Cell Line | relative viability (Mirin + OSI-027; first compound 0.25 µM) | relative viability (Mirin + OSI-027; first compound 0.7906 µM) | relative viability (Mirin + OSI-027; first compound 2.5 µM) | relative viability (Mirin + OSI-027; first compound 7.906 µM) | relative viability (Mirin + OSI-027; first compound 25 µM) | relative viability (Mirin + AZD7762; first compound 0.25 µM) | relative viability (Mirin + AZD7762; first compound 0.7906 µM) | relative viability (Mirin + AZD7762; first compound 2.5 µM) | relative viability (Mirin + AZD7762; first compound 7.906 µM) | relative viability (Mirin + AZD7762; first compound 25 µM) | relative viability (Mirin + Pemetrexed; first compound 0.25 µM) | relative viability (Mirin + Pemetrexed; first compound 0.7906 µM) | relative viability (Mirin + Pemetrexed; first compound 2.5 µM) | relative viability (Mirin + Pemetrexed; first compound 7.906 µM) | relative viability (Mirin + Pemetrexed; first compound 25 µM) | relative viability ([1]; first compound 0.04 µM) | relative viability ([1]; first compound 0.1265 µM) | relative viability ([1]; first compound 1.265 µM) | relative viability ([1]; first compound 4 µM) | relative viability ([1]; first compound 0.4 µM) |
| --- | --- | --- | --- | --- | --- | --- | --- | --- | --- | --- | --- | --- | --- | --- | --- | --- | --- | --- | --- | --- |
| SW 900 | 0.487 | 0.597 | 0.701 | 0.434 | 0.75 | 0.67 | 0.669 | 0.669 | 0.518 | 0.641 | 0.505 | 0.494 | 0.47 | 0.494 | 0.48 |  |  |  |  |  |
| NCI-H1944 | 0.445 | 0.344 | 0.391 | 0.375 | 0.314 | 0.555 | 0.569 | 0.537 | 0.381 | 0.381 | 0.636 | 0.627 | 0.598 | 0.558 | 0.598 | 1.31 | 1.18 | 1.14 | 1.16 |  |
| NCI-H838 | 0.394 | 0.394 | 0.414 | 0.374 | 0.406 | 0.984 | 1.05 | 0.907 | 0.915 | 1.06 | 0.235 | 0.259 | 0.258 | 0.236 | 0.188 | 0.863 | 0.49 | 0.392 | 0.289 | 0.439 |
| NCI-H1650 | 0.577 | 0.601 | 0.729 | 0.643 | 0.403 |  |  |  |  |  | 0.339 | 0.382 | 0.377 | 0.324 | 0.359 |  |  |  |  |  |
| HCC-827 | 0.785 | 0.71 | 0.748 | 0.737 | 0.744 | 0.209 | 0.184 | 0.242 | 0.157 | 0.225 | 0.246 | 0.258 | 0.224 | 0.254 | 0.282 | 0.974 | 0.907 | 0.992 | 0.823 | 0.94 |
| HCC-366 | 0.974 |  | 0.919 | 0.711 | 0.882 | 0.313 | 0.541 | 0.28 | 0.262 | 0.364 | 0.178 | 0.251 | 0.177 | 0.167 | 0.218 | 0.435 | 0.64 | 0.0751 | 0.0223 | 0.597 |
| HARA | 0.491 |  | 0.56 | 0.356 | 0.437 | 0.257 |  | 0.47 | 0.423 | 0.353 | 0.235 |  | 0.236 | 0.227 | 0.293 | 1.04 | 0.733 | 0.634 | 0.698 | 1 |
| NCI-H441 | 0.673 | 0.6 | 0.598 | 0.473 | 0.602 | 1.36 | 1.05 | 1.23 | 1.2 | 1.18 | 0.227 | 0.262 | 0.251 | 0.261 | 0.251 | 0.545 | 0.766 | 0.566 | 0.465 | 0.635 |
| LXF-289 | 0.79 | 0.701 | 0.764 | 0.715 | 0.763 | 1.07 | 1.3 | 1.16 | 1.36 | 1.47 | 0.902 | 0.856 | 0.923 | 0.791 | 0.821 | 1.08 | 1.06 | 0.978 | 0.973 | 0.955 |
